The test has as its system Bemisia tabaci. Kind of test: Bemisia tabaci, leaf dip method. The test is classed as in vivo. The following applies: foliar, brinjal leaf dip, whitefly adults, 72 h after release, dead + moribund vs untreated control, read-out: percent mortality. On the procedure: The leaf dip method was used for testing, wherein the required quantity of the compound was weighed and dissolved in a tube containing solvent solution. The tube was put on a vortex at 2000 rpm for 90 min for proper mixing, then diluted with 0.01% Triton-X solution to get the desired test concentration. Brinjal leaves were dipped in the compound solution for 10 seconds; shade dried for 20 min and then placed, with the abaxial side of the leaf up, on 4 ml of a 1% agar-agar solution in respective perforated container caps. Known numbers of freshly emerged whitefly adults were collected, using a modified aspirator, and released into a perforated container in which the cap containing the treated leaf was placed. The containers were kept in a plant growth chamber at a temperature of 25° C. and relative humidity of 70%.
Observations on dead, moribund and alive adults were recorded 72 h after the release. Percent mortality was calculated by combining dead and moribund adults and comparing the result to the one of the untreated control. The compounds 55 87 and 198 were recorded ≥70 percent mortality @ 300 PPM.

Usually mortality stands for the share of the test organisms that died.

On to `CCS(=O)(=O)c1ccc(-n2nccn2)nc1-c1cnc2cc(C(F)(F)F)nn2c1` [Compound 55, 6-(3-(ethylsulfonyl)-6-(2H-1,2,3-triazol-2-yl)pyridin-2-yl)-2-(trifluoromethyl)pyrazolo[1,5-a]pyrimidine], for which the mortality at 300 ppm is not below 70%.

Values taken from patent publication US12514251B2, “Fused heterocyclic compounds and their use as pest control agents” (priority 2020, dated 2026).
